Measured values taken from patent US20020137929A1, “1 - (3-heterocyclylphenyl) isothiourea, -isourea, -guanidine and -amidine herbicidal agents” (Intellectual Property Department, BASF Aktiengesellschaft, priority 1998, published 2002).

Tests used:
ZEAMX (Corn, Field) = test: Postemergence herbicidal evaluation; format: in vivo, Zea mays; settings: postemergence
Method in brief: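 Rate range approx. 0.0156–0.500 kg/ha. Foliar application at 40 psi to ~2-week seedlings; surfactant 0.5% TWEEN 20 in 50/50 acetone/water. Evaluation 4–5 wk post-treatment by 0–9 visual injury score, means of replicate tests.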

ABUTH (Velvetleaf) = test: Preemergence herbicidal evaluation; format: in vivo, Abutilon theophrasti; settings: rated 4-5 weeks after treatment
Method in brief: (§1)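 Scores (0–9) reflect visual comparison with control plants for stand, vigor, malformation, size and chlorosis. Compound was applied to the soil after sowing, before emergence, as an aqueous acetone spray (about 0.0156–0.500 kg/ha), and cups were kept in a greenhouse for 4–5 weeks.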

AMBEL (Ragweed, Common) = test: Preemergence herbicidal evaluation; format: in vivo, Ambrosia artemisifolia; settings: rated 4-5 weeks after treatment
Method in brief: as §1

[1] = tested on: GLXMAW (Soybean, Williams); test: Preemergence herbicidal evaluation; format: in vivo, Glycine max, (L.) Merr. cv Williams; settings: rated 4-5 weeks after treatment
Method in brief: as §1

[2] = tested on: SAGPY (Arrowhead (Pygmaea)); test: Postemergence weed control under flooded paddy conditions; format: in vivo, Sagittaria pygmaea; settings: postemergence weeds, rated 3 to 4 weeks after treatment
Excerpt: Results of herbicide evaluation are expressed on a rating scale (0-9). The scale is based upon a visual observation of plant stand, vigor, malformation, size, chlorosis and overall plant appearance as compared with a control.
Plastic containers containing weeds which are 3 to 5 cm tall and rice seedlings at the 1.5 to 2.5 leaf stage are flooded with water. The water is maintained at 1.5 to 3 cm above the soil surface for the duration of the experiment. Test compounds are applied as aqueous/ acetone mixtures 50/50 v/v directly into the flood water to provide the equivalent of about 0.0313 to 0.500 kg/ha of active ingredient. The treated containers are placed on greenhouse benches and cared for in accordance with conventional greenhouse procedures. Three to four weeks after treatment, the test is terminated and each container is examined and herbicidal effect rated according to the rating system provided in Example 37. The compounds evaluated are reported by compound number given in Example 37.

| Compound | ZEAMX herbicidal rating (ZEAMX (Corn, Field); rate 0.0158 kg/ha) | ZEAMX herbicidal rating (ZEAMX (Corn, Field); rate 0.0315 kg/ha) | ZEAMX herbicidal rating (ZEAMX (Corn, Field); rate 0.0630 kg/ha) | Preemergence herbicidal rating ABUTH (ABUTH (Velvetleaf); rate 0.0156 kg/ha) | Preemergence herbicidal rating ABUTH (ABUTH (Velvetleaf); rate 0.0313 kg/ha) | Preemergence herbicidal rating ABUTH (ABUTH (Velvetleaf); rate 0.0625 kg/ha) | Preemergence herbicidal rating ABUTH (ABUTH (Velvetleaf); rate 0.1250 kg/ha) | Preemergence herbicidal rating ABUTH (ABUTH (Velvetleaf); rate 0.2500 kg/ha) | Preemergence herbicidal rating AMBEL (AMBEL (Ragweed, Common); rate 0.0156 kg/ha) | Preemergence herbicidal rating AMBEL (AMBEL (Ragweed, Common); rate 0.0313 kg/ha) | Preemergence herbicidal rating AMBEL (AMBEL (Ragweed, Common); rate 0.0625 kg/ha) | Preemergence herbicidal rating AMBEL (AMBEL (Ragweed, Common); rate 0.1250 kg/ha) | Preemergence herbicidal rating AMBEL (AMBEL (Ragweed, Common); rate 0.2500 kg/ha) | Preemergence herbicidal rating GLXMAW ([1]; rate 0.0156 kg/ha) | Preemergence herbicidal rating GLXMAW ([1]; rate 0.0313 kg/ha) | Preemergence herbicidal rating GLXMAW ([1]; rate 0.0625 kg/ha) | Preemergence herbicidal rating GLXMAW ([1]; rate 0.1250 kg/ha) | Preemergence herbicidal rating GLXMAW ([1]; rate 0.2500 kg/ha) | Herbicidal rating SAGPY ([2]; Rate 0.1250 kg/ha) | Herbicidal rating SAGPY ([2]; Rate 0.2500 kg/ha) | also measured |
| --- | --- | --- | --- | --- | --- | --- | --- | --- | --- | --- | --- | --- | --- | --- | --- | --- | --- | --- | --- | --- | --- |
| Cn1c(C(F)(F)F)cc(=O)n(-c2cc(N=C3SCC(=O)N3C3CCOC3=O)c(Cl)cc2F)c1=O (stereo not drawn) [Compound 73] | 4.5 | 4.5 | 5.0 | 9.0 | 9.0 | 9.0 | 9.0 | 9.0 | 1.0 | 0.0 | 4.0 | 9.0 | 9.0 | 0.0 | 1.0 | 1.0 | 1.0 | 9.0 | 3.0 | 4.0 | – |
| CCOC(=O)[C@H](C)N1C(=O)CSC1=Nc1cc(-n2c(=O)cc(C(F)(F)F)n(C)c2=O)c(F)cc1Cl [Compound 76, Ethyl 2-{{2-chloro-5-[3,6-dihydro-3-methyl-2,6-dioxo-4-(trifluoromethyl)-1(2H)-pyrimidinyl]-4-fluorophenyl}imino}-α-methyl-4-oxo-3-thiazolidineacetate, L-] | 4.5 | 6.0 | 7.0 | 1.0 | 1.0 | 9.0 | 9.0 | 9.0 | 0.0 | 0.0 | 7.0 | 9.0 | 9.0 | 0.0 | 0.0 | 3.0 | 6.0 | 9.0 | 4.0 | 4.0 | Herbicidal rating SAGPY ([2]; Rate 0.0313 kg/ha): 0.0; Herbicidal rating SAGPY ([2]; Rate 0.0625 kg/ha): 0.0 |
| COC(=O)[C@H](Cc1ccccc1)N1C(=O)CS/C1=N/c1cc(-n2c(=O)cc(C(F)(F)F)n(C)c2=O)c(F)cc1Cl [Compound 72, Methyl α-benzyl-2-{{2-chloro-5-[3,6-dihydro-3-methyl-2,6-dioxo-4-(trifluoromethyl)-1(2H)-pyrimidinyl]-4-fluorophenyl]imino}-4-oxo-3-thiazolidineacetate, L-] | 4.0 | 4.5 | 6.5 | 2.0 | 9.0 | 9.0 | 9.0 | 9.0 | 0.0 | – | 2.0 | 9.0 | 9.0 | 0.0 | 0.0 | 0.0 | 1.0 | 3.0 | 4.0 | 4.0 | Herbicidal rating SAGPY ([2]; Rate 0.0313 kg/ha): 4.0; Herbicidal rating SAGPY ([2]; Rate 0.0625 kg/ha): 4.0 |
| Cn1c(C(F)(F)F)cc(=O)n(-c2cc(N=C3SCC(=O)N3[C@H](Cc3ccccc3)C(=O)O)c(Cl)cc2F)c1=O [Compound 69, α-Benzyl-2-{{2-chloro-5-[3,6-dihydro-3-methyl-2,6-dioxo-4-(trifluoromethyl)-1(2H)-pyrimidinyl]-4-fluorophenyl}imino}-4-oxo-3-thiazolidineacetic acid, D-] | 4.5 | 4.5 | 5.5 | 0.0 | 0.0 | 9.0 | 9.0 | 9.0 | 0.0 | 4.0 | 5.0 | 9.0 | 7.0 | 1.0 | 0.0 | 0.0 | 1.0 | 2.0 | 3.0 | 3.0 | Herbicidal rating SAGPY ([2]; Rate 0.0313 kg/ha): 0.0; Herbicidal rating SAGPY ([2]; Rate 0.0625 kg/ha): 0.0 |
| CCOC(=O)C(c1ccc(Cl)cc1)N1C(=O)CSC1=Nc1cc(-n2c(=O)cc(C(F)(F)F)n(C)c2=O)c(F)cc1Cl (racemic) [Compound 79, Ethyl α-(p-chlorophenyl)-2-{{2-chloro-5-[3,6-dihydro-3-methyl-2,6-dioxo-4-(trifluoromethyl)-1(2H)-pyrimidinyl]-4-fluorophenyl}imino}-4-oxo-3-thiazolidineacetate, DL-] | 5.0 | 4.5 | 5.0 | – | 0.0 | 2.0 | 6.0 | 9.0 | – | 1.0 | 3.0 | 1.0 | 8.0 | – | 1.0 | 1.0 | 0.0 | 2.0 | 4.0 | 4.0 | Herbicidal rating SAGPY ([2]; Rate 0.0313 kg/ha): 0.0; Herbicidal rating SAGPY ([2]; Rate 0.0625 kg/ha): 0.0 |
| COC(=O)[C@H](Cc1ccc([N+](=O)[O-])cc1)N1C(=O)CSC1=Nc1cc(-n2c(=O)cc(C(F)(F)F)n(C)c2=O)c(F)cc1Cl [Compound 78, Methyl 2-{{2-chloro-5-[3,6-dihydro-3-methyl-2,6-dioxo-4-(trifluoromethyl)-1(2H)-pyrimidinyl]-4-fluorophenyl}imino}-4-oxo-α-(p-nitrobenzyl)-3-thiazolidineacetate, L-] | 4.5 | 5.0 | 5.0 | 0.0 | 0.0 | 0.0 | 2.0 | 9.0 | 0.0 | 0.0 | 0.0 | 1.0 | 1.0 | 1.0 | 0.0 | 0.0 | 0.0 | 1.0 | 2.0 | 4.0 | Herbicidal rating SAGPY ([2]; Rate 0.0313 kg/ha): 0.0; Herbicidal rating SAGPY ([2]; Rate 0.0625 kg/ha): 0.0 |
